From doi:10.1101/2023.11.24.568596v1 (biorxiv, 2023)

Assays:
Conditions in all cases: binder
[1] = biological target: CaMKK2 (Homo sapiens, UniProt Q96RR4)
[2] = biological target: GSK3B (Homo sapiens, UniProt P49841)
[3] = biological target: T1, BMX (Homo sapiens, UniProt P51813)
T1 sequence (P51813 1-675): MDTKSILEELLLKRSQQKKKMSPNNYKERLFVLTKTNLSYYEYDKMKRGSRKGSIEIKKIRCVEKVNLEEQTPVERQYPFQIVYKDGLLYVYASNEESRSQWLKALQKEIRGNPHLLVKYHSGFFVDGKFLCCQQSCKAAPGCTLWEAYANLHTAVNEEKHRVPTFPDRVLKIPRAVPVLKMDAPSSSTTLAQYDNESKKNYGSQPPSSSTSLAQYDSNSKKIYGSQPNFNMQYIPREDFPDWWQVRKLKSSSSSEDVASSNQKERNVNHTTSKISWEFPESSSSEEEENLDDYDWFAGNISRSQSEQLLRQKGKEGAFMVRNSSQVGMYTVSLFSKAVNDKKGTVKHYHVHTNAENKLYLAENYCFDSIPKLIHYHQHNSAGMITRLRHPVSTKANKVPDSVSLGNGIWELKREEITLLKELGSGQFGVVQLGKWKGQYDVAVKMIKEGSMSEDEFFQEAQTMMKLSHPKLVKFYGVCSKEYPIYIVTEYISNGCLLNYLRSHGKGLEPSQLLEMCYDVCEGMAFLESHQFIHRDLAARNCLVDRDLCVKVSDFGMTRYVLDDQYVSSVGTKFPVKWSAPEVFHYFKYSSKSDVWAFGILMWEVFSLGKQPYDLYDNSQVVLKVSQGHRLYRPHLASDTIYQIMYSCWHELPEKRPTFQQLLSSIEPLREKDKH

[4] = biological target: BIKE (Homo sapiens, UniProt Q9NSY1)
[5] = biological target: T2, FECH (Homo sapiens, UniProt P22830)
T2 sequence (P22830 1-423): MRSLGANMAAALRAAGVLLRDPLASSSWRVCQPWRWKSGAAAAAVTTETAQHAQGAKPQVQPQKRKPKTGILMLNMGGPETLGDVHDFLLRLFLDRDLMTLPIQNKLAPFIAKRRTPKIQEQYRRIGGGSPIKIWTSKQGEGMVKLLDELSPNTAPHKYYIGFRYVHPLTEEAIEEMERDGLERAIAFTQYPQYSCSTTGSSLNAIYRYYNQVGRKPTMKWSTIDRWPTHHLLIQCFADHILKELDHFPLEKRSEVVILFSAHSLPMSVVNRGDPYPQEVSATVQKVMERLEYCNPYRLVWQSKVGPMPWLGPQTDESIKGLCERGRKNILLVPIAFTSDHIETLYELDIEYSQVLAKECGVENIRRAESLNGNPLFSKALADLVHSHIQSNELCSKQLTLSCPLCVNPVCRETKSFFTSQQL

[6] = biological target: EphA4 (Homo sapiens, UniProt P54764)
[7] = biological target: MST4 (Homo sapiens, UniProt Q9P289)
[8] = biological target: T3, EphB3 (Homo sapiens, UniProt P54753)
T3 sequence (P54753 1-998): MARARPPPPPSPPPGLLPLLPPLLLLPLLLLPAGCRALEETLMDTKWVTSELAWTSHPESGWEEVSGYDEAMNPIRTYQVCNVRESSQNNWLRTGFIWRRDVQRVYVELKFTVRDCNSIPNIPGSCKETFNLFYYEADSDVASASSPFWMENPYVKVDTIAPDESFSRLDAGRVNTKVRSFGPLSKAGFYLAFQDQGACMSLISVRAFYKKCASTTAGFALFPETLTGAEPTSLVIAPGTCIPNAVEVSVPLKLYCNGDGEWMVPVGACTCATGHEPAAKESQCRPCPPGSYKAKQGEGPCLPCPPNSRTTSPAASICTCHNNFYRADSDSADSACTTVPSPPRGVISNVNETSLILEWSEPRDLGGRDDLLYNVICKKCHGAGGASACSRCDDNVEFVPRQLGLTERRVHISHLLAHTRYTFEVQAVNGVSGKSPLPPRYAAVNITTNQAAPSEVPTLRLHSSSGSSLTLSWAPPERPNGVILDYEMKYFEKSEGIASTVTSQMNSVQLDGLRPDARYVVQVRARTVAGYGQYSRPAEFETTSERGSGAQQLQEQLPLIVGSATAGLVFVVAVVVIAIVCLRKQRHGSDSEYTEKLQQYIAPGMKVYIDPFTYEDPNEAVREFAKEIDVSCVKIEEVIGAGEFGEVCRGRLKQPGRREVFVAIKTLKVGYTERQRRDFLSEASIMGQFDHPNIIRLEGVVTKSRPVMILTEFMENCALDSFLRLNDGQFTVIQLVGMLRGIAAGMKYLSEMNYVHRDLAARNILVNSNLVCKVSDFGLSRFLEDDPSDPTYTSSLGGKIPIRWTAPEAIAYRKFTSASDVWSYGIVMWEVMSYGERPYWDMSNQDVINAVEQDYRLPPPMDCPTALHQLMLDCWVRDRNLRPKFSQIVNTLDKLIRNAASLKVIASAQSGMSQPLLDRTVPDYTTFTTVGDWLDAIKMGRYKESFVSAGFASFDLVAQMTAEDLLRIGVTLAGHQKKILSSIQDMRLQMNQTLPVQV

[9] = biological target: CaMK2d (Homo sapiens, UniProt Q13557)
[10] = biological target: CLK3 (Homo sapiens, UniProt P49761)
[11] = biological target: FLT1 (Homo sapiens, UniProt P17948)
FLT1, sequence (P17948 whole entry): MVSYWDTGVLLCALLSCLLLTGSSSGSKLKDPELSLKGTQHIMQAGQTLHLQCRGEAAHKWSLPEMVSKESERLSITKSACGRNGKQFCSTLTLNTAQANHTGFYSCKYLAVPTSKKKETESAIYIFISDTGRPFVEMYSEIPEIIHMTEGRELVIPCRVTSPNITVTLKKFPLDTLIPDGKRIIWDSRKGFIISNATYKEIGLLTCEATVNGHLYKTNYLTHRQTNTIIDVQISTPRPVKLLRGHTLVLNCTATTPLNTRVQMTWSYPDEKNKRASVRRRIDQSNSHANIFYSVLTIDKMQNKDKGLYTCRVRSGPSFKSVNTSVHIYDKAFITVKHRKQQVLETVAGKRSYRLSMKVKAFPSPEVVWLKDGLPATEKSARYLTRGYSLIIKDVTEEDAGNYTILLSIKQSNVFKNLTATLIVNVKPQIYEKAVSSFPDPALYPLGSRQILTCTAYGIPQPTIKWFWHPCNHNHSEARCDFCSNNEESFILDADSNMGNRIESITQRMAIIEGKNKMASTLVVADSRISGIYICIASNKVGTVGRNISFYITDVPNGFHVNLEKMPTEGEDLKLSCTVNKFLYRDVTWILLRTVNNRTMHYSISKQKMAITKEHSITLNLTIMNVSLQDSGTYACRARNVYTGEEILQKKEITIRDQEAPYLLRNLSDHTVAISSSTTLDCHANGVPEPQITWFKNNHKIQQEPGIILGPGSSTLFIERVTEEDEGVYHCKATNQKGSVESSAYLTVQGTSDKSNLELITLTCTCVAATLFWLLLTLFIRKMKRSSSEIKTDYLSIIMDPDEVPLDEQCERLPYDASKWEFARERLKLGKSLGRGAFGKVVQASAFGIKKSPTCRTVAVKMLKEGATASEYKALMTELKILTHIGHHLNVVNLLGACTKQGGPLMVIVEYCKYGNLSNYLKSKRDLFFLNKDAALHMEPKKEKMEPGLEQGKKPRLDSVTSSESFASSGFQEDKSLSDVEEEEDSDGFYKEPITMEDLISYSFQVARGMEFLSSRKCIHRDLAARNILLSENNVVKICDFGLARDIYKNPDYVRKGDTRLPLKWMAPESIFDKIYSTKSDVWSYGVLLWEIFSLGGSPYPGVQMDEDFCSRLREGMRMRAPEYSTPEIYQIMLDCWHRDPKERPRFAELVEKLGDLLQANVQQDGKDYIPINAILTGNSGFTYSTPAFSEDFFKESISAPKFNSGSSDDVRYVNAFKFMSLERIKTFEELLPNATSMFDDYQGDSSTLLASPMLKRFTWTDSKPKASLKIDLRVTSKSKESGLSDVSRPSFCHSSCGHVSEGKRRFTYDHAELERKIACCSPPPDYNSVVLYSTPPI

CaMKK2, sequence (Q96RR4 whole entry): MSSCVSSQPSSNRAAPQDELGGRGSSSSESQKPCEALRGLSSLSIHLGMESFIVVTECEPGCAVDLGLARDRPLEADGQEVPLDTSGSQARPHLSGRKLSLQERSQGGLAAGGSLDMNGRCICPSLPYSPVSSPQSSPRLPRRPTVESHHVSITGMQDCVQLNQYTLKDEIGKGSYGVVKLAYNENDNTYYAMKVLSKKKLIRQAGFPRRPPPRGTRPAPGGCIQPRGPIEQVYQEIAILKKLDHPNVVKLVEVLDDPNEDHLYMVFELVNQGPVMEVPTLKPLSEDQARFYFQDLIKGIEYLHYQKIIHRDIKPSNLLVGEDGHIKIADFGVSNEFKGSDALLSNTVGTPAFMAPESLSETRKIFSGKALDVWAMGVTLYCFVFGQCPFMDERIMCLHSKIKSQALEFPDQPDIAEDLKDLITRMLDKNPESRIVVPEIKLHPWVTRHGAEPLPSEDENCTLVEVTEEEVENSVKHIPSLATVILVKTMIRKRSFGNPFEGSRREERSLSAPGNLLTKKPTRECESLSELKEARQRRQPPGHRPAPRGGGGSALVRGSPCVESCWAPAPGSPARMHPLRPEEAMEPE
CaMK2d, sequence (Q13557 whole entry): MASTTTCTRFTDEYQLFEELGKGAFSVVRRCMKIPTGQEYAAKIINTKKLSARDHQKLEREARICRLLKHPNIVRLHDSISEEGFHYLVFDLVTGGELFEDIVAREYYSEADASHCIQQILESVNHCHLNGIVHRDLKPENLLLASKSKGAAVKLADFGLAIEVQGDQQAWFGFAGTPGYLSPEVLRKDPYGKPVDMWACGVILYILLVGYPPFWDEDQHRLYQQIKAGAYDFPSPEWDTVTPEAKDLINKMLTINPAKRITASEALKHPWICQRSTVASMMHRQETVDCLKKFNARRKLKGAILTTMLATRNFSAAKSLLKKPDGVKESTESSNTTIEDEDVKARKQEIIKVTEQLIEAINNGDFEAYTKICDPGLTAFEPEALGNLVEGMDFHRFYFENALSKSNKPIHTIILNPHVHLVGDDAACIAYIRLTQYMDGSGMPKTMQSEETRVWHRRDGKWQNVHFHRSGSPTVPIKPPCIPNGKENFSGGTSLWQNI
EphA4, sequence (P54764 whole entry): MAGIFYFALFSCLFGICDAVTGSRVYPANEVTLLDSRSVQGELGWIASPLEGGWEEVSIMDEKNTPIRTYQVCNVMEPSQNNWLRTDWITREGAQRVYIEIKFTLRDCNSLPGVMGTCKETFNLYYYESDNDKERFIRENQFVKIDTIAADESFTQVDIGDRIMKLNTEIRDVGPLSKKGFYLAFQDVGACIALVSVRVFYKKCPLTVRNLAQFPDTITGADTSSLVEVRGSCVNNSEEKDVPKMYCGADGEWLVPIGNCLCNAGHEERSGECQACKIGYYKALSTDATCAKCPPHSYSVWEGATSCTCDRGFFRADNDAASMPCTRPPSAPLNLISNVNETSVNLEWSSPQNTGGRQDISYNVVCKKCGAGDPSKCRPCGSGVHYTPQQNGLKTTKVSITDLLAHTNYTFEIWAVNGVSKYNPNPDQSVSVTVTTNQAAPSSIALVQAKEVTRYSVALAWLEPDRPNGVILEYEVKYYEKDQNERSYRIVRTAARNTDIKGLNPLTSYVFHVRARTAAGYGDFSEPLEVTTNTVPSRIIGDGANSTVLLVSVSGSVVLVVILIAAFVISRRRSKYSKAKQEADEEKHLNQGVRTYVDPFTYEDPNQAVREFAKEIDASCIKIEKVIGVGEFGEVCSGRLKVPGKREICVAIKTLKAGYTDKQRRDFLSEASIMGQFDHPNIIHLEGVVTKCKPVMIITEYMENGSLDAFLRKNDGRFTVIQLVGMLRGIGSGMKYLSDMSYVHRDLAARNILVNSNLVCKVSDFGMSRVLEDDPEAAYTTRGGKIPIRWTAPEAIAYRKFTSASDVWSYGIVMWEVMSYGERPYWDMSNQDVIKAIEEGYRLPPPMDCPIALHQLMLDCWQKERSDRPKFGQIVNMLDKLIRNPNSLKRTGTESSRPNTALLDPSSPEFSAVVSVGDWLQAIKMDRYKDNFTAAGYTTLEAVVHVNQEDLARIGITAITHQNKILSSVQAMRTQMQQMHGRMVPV
BIKE, sequence (Q9NSY1 whole entry): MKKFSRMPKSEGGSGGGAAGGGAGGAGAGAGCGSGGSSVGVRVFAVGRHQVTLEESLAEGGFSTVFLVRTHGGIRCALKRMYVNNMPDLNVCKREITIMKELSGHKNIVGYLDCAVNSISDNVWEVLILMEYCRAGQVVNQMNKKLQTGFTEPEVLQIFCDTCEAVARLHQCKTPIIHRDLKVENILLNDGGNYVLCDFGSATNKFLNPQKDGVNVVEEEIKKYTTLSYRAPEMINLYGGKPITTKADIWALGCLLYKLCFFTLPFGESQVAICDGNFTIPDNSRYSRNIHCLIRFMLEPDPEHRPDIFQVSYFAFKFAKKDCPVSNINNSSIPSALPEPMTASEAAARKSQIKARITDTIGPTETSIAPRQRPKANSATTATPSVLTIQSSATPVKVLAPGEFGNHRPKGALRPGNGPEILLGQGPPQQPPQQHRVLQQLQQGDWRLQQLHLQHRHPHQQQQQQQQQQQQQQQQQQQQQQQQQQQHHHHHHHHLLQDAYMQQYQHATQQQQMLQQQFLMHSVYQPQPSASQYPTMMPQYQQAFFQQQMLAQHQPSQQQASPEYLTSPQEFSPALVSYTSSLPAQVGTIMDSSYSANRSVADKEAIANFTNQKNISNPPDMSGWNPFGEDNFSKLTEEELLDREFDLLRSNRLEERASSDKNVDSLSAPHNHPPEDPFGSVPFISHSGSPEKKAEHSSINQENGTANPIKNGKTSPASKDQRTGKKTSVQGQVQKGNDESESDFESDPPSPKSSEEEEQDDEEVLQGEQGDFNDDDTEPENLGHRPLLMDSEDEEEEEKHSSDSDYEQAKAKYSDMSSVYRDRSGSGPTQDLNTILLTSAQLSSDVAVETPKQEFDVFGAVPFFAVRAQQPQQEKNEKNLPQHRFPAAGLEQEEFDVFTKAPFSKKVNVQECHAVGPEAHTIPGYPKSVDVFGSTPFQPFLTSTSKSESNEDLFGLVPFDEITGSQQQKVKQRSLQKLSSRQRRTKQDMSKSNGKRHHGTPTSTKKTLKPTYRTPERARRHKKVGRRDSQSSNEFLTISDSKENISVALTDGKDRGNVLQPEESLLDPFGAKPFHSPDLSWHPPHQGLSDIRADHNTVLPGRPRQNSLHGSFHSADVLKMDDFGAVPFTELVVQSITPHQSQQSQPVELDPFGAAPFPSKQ
CLK3, sequence (P49761 whole entry): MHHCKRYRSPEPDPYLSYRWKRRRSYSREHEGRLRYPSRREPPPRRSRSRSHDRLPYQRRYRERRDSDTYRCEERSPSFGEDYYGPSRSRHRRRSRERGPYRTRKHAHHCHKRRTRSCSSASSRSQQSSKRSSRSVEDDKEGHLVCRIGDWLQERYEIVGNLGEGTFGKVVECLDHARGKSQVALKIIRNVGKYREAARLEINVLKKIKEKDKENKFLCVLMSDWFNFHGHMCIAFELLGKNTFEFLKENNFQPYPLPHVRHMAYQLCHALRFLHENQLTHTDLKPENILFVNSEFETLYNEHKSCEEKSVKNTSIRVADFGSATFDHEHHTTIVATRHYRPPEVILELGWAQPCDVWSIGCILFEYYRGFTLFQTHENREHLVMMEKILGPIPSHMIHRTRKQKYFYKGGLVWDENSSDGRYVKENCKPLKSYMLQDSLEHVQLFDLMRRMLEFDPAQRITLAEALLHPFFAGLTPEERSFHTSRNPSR

Cc1cccc(-c2ccc(-c3cc4cnc(NCCCN5CCCC5=O)nc4n(CCCCN)c3=O)c(Cl)c2)n1 [compound 27, MR30]
ΔTm MR30 (27) [1]: 0.5 °C | ΔTm MR30 (27) [2]: 1.9 °C | ΔTm MR30 (27) [3]: 1.7 °C | ΔTm MR30 (27) [4]: 0.4 °C | ΔTm MR30 (27) [5]: 0.5 °C | ΔTm MR30 (27) [6]: 2.0 °C | ΔTm MR30 (27) [7]: 7.9 °C | ΔTm MR30 (27) [8]: 2.3 °C | ΔTm MR30 (27) [9]: -0.5 °C | ΔTm MR30 (27) [10]: -0.3 °C | ΔTm MR30 (27) [11]: 2.4 °C

Cc1cccc(-c2ccc(-c3cc4cnc(Nc5cc(C(F)(F)F)ccc5C)nc4n(CCCCN)c3=O)c(Cl)c2)n1 [compound 28, 8-(4-Aminobutyl)-6-(2-chloro-4-(6-methylpyridin-2-yl)phenyl)-2-((2-methyl-5-(trifluoromethyl)phenyl)amino)pyrido[2,3-d]pyrimidin-7(8H)-one]
ΔTm 28 [1]: 2.4 °C | ΔTm 28 [2]: 0.3 °C | ΔTm 28 [3]: 3.1 °C | ΔTm 28 [4]: 0.3 °C | ΔTm 28 [5]: 10.6 °C | ΔTm 28 [6]: 3.4 °C | ΔTm 28 [7]: 8.8 °C | ΔTm 28 [8]: 4.1 °C | ΔTm 28 [9]: -0.4 °C | ΔTm 28 [10]: 0.0 °C | ΔTm 28 [11]: 7.8 °C

Cc1cccc(-c2ccc(-c3cc4cnc(NCCCN5CCNCC5)nc4n(CCCCN)c3=O)c(Cl)c2)n1 [compound 29, 8-(4-Aminobutyl)-6-(2-chloro-4-(6-methylpyridin-2-yl)phenyl)-2-((3-(piperazin-1-yl)propyl)amino)pyrido[2,3-d]pyrimidin-7(8H)-one]
ΔTm 29 [1]: 0.7 °C | ΔTm 29 [2]: 0.3 °C | ΔTm 29 [3]: 2.1 °C | ΔTm 29 [4]: 0.7 °C | ΔTm 29 [5]: -0.4 °C | ΔTm 29 [6]: 2.1 °C | ΔTm 29 [7]: 10.2 °C | ΔTm 29 [8]: 2.3 °C | ΔTm 29 [9]: -0.1 °C | ΔTm 29 [10]: 0.0 °C | ΔTm 29 [11]: 3.9 °C

Cc1cccc(-c2ccc(-c3cc4cnc(Nc5ccc(CCCO)cc5)nc4n(CCCCN)c3=O)c(Cl)c2)n1 [compound 30, 8-(4-Aminobutyl)-6-(2-chloro-4-(6-methylpyridin-2-yl)phenyl)-2-((4-(3-hydroxypropyl)phenyl)amino)pyrido[2,3-d]pyrimidin-7(8H)-one]
ΔTm 30 [1]: 7.5 °C | ΔTm 30 [2]: 1.9 °C | ΔTm 30 [3]: 6.6 °C | ΔTm 30 [4]: 6.4 °C | ΔTm 30 [5]: 0.5 °C | ΔTm 30 [6]: 3.5 °C | ΔTm 30 [7]: 15.3 °C | ΔTm 30 [8]: 6.9 °C | ΔTm 30 [9]: 0.1 °C | ΔTm 30 [10]: -0.2 °C | ΔTm 30 [11]: 4.3 °C

Cc1cccc(-c2ccc(-c3cc4cnc(Nc5ccc(O)cc5)nc4n(CCCCN)c3=O)c(Cl)c2)n1 [compound 31, 8-(4-Aminobutyl)-6-(2-chloro-4-(6-methylpyridin-2-yl)phenyl)-2-((4-hydroxyphenyl)amino) pyrido[2,3-d]pyrimidin-7(8H)-one]
ΔTm 31 [1]: 5.2 °C | ΔTm 31 [2]: 3.2 °C | ΔTm 31 [3]: 7.0 °C | ΔTm 31 [4]: 6.5 °C | ΔTm 31 [5]: 2.0 °C | ΔTm 31 [6]: 4.4 °C | ΔTm 31 [7]: 14.7 °C | ΔTm 31 [8]: 5.3 °C | ΔTm 31 [9]: -0.1 °C | ΔTm 31 [10]: -0.5 °C | ΔTm 31 [11]: 5.6 °C

Cc1cccc(-c2ccc(-c3cc4cnc(Nc5ccc(C)c(O)c5)nc4n(CCCCN)c3=O)c(Cl)c2)n1 [compound 32, 8-(4-Aminobutyl)-6-(2-chloro-4-(6-methylpyridin-2-yl)phenyl)-2-((3-hydroxy-4-methylphenyl)amino)pyrido[2,3-d]pyrimidin-7(8H)-one]
ΔTm 32 [1]: 6.8 °C | ΔTm 32 [2]: 2.2 °C | ΔTm 32 [3]: 7.3 °C | ΔTm 32 [4]: 6.6 °C | ΔTm 32 [5]: 3.8 °C | ΔTm 32 [6]: 4.6 °C | ΔTm 32 [7]: 15.5 °C | ΔTm 32 [8]: 8.5 °C | ΔTm 32 [9]: 0.0 °C | ΔTm 32 [10]: 0.1 °C | ΔTm 32 [11]: 5.6 °C
